Measured values as given in US10294229B2, “Heteroaryl substituted aminopyridine compounds” (BRISTOL-MYERS SQUIBB COMPANY, priority 2015, dated 2019).

Assays:
IRAK4 = IRAK4 (Homo sapiens (Human), UniProt Q9NWZ3); assay: IRAK4 Inhibition Assay; type: biochemical; details: ATP 500 μM; IRAK4 0.6 nM
How it was run: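 Enzyme 0.6 nM, ATP 500 μM, FL-peptide 1.5 μM, DMSO 1.6%; HEPES pH 7.2/MgCl2/Brij 35/DTT buffer. RT, 60 min, EDTA stop. Mobility-shift product/substrate ratio; % inhib vs no-enzyme and vehicle controls.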

[1] = tested on: Human whole blood stimulated with a TLR2 agonist (lipoteichoic acid), IL-6 levels; assay: IRAK4 Whole Blood Assay; type: cell-based; details: lipoteichoic acid 10 μg/mL
How it was run: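 ACD-A-anticoagulated human whole blood was preincubated with compounds for 60 min at 37 °C under 5% CO2. It was then stimulated with 10 μg/mL lipoteichoic acid (final) in RPMI for 5 h. IL-6 in plasma supernatants was measured by flow cytometry bead assay.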

IRAK4, sequence (Q9NWZ3 whole entry, species assumed): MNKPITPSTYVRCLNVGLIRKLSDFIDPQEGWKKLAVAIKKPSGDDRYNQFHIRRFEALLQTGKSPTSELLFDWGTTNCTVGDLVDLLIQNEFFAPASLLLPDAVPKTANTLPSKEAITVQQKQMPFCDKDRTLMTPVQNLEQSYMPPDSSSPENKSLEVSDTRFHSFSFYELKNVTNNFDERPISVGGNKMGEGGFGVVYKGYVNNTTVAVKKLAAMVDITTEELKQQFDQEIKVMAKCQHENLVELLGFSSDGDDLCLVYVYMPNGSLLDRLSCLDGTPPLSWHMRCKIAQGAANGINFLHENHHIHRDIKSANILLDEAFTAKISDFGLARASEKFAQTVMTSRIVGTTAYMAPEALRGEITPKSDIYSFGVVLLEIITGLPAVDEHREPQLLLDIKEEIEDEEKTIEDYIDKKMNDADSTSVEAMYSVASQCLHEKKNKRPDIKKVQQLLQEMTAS

Row | IC50 (IRAK4) | EC50 ([1]; Homo sapiens) | EC50 [1] | SMILES
1 | 14 nM | 600 nM | – | CCCn1cc(-c2cnc(-n3ncc4cc(C#N)cnc43)cc2Nc2cnn(CC(F)F)c2)cn1 [Example 256, 1-(4-((1-(2,2-difluoroethyl)-1H-pyrazol-4-yl)amino)-5-(1-propyl-1H-pyrazol-4-yl)pyridin-2-yl)-1H-pyrazolo[3,4-b]pyridine-5-carbonitrile]
2 | 14 nM | 520 nM | – | CC(C)Nc1cc(-n2ncc3cc(C#N)cnc32)ncc1-n1cc(C2CCCC2)nn1 [Example 266, 1-(5-(4-cyclopentyl-1H-1,2,3-triazol-1-yl)-4-(isopropylamino)pyridin-2-yl)-1H-pyrazolo[3,4-b]pyridine-5-carbonitrile]
3 | 7 nM | 380 nM | – | CCCc1cn(-c2cnc(-n3ncc4cc(C#N)c(N)nc43)cc2NC2COC2)nn1 [Example 281, 6-amino-1-(4-(oxetan-3-ylamino)-5-(4-propyl-1H-1,2,3-triazol-1-yl)pyridin-2-yl)-1H-pyrazolo[3,4-b]pyridine-5-carbonitrile]
4 | 13 nM | 2260 nM | – | CCCc1cn(-c2cnc(-n3ncc4cc(Cl)cnc43)cc2NC(C)C)nn1 [Example 282, 2-(5-chloro-1H-pyrazolo[3,4-b]pyridin-1-yl)-N-isopropyl-5-(4-propyl-1H-1,2,3-triazol-1-yl)pyridin-4-amine]
5 | 7 nM | 1280 nM | – | CCCc1cn(-c2cnc(-n3ncc4cc(C#N)cnc43)cc2NC2CCOCC2)nn1 [Example 283, 1-(5-(4-propyl-1H-1,2,3-triazol-1-yl)-4-((tetrahydro-2H-pyran-4-yl)amino)pyridin-2-yl)-1H-pyrazolo[3,4-b]pyridine-5-carbonitrile]
6 | 17 nM | 6400 nM | – | CCCc1cn(-c2cnc(-n3cnc4cc(C#N)cnc43)cc2N[C@@H](C)CO)nn1 [Example 285, (S)-3-(4-((1-hydroxypropan-2-yl)amino)-5-(4-propyl-1H-1,2,3-triazol-1-yl)pyridin-2-yl)-3H-imidazo[4,5-b]pyridine-6-carbonitrile]
7 | 16 nM | 1180 nM | – | CCC(O)Cc1cn(-c2cnc(-n3ncc4cc(C#N)cnc43)cc2NC(C)C)nn1 (stereo not drawn) [Example 303, 1-(5-(4-(2-hydroxybutyl)-1H-1,2,3-triazol-1-yl)-4-(isopropylamino)pyridin-2-yl)-1H-pyrazolo[3,4-b]pyridine-5-carbonitrile]
8 | 10 nM | 550 nM | – | CC(C)Cc1cn(-c2cnc(-n3ncc4cc(C#N)cnc43)cc2NC(C)C)nn1 [Example 305, 1-(5-(4-isobutyl-1H-1,2,3-triazol-1-yl)-4-(isopropylamino)pyridin-2-yl)-1H-pyrazolo[3,4-b]pyridine-5-carbonitrile]
9 | 3 nM | 580 nM | – | CC(C)CCc1cn(-c2cnc(-n3ncc4cc(C#N)cnc43)cc2NC(C)C)nn1 [Example 307, 1-(5-(4-isopentyl-1H-1,2,3-triazol-1-yl)-4-(isopropylamino)pyridin-2-yl)-1H-pyrazolo[3,4-b]pyridine-5-carbonitrile]
10 | 5 nM | 1780 nM | – | CC(C)Nc1cc(-n2ncc3cc(C#N)cnc32)ncc1-n1cc(C[C@@H](O)c2ccccc2)nn1 [Example 315, (R)-1-(5-(4-(2-hydroxy-2-phenylethyl)-1H-1,2,3-triazol-1-yl)-4-(isopropylamino)pyridin-2-yl)-1H-pyrazolo[3,4-b]pyridine-5-carbonitrile]
11 | 2 nM | 920 nM | – | CC(C)Nc1cc(-n2ncc3cc(C#N)cnc32)ncc1-n1cc(CCc2ccccc2)nn1 [Example 319, 1-(4-(isopropylamino)-5-(4-phenethyl-1H-1,2,3-triazol-1-yl)pyridin-2-yl)-1H-pyrazolo[3,4-b]pyridine-5-carbonitrile]
12 | 3 nM | 930 nM | – | CCCCc1cn(-c2cnc(-n3ncc4cc(C#N)cnc43)cc2NC(C)C)nn1 [Example 320, 1-(5-(4-butyl-1H-1,2,3-triazol-1-yl)-4-(isopropylamino)pyridin-2-yl)-1H-pyrazolo[3,4-b]pyridine-5-carbonitrile]
13 | 18 nM | 570 nM | – | CC(C)Nc1cc(-n2ncc3cc(C#N)cnc32)ncc1-n1cc(CCC#N)nn1 [Example 321, 1-(5-(4-(2-cyanoethyl)-1H-1,2,3-triazol-1-yl)-4-(isopropylamino)pyridin-2-yl)-1H-pyrazolo[3,4-b]pyridine-5-carbonitrile]
14 | 6 nM | 1310 nM | – | CC(C)Nc1cc(-n2ncc3cc(C#N)cnc32)ncc1-n1cc(CCCC#N)nn1 [Example 323, 1-(5-(4-(3-cyanopropyl)-1H-1,2,3-triazol-1-yl)-4-(isopropylamino)pyridin-2-yl)-1H-pyrazolo[3,4-b]pyridine-5-carbonitrile]
15 | 18 nM | 3410 nM | – | CCN(CC)Cc1cn(-c2cnc(-n3ncc4cc(C#N)cnc43)cc2NC(C)C)nn1 [Example 324, 1-(5-(4-((diethylamino)methyl)-1H-1,2,3-triazol-1-yl)-4-(isopropylamino)pyridin-2-yl)-1H-pyrazolo[3,4-b]pyridine-5-carbonitrile]
16 | 16 nM | 990 nM | – | CCc1cn(-c2cnc(-n3ncc4cc(C#N)cnc43)cc2NC(C)C)nn1 [Example 325, 1-(5-(4-ethyl-1H-1,2,3-triazol-1-yl)-4-(isopropylamino)pyridin-2-yl)-1H-pyrazolo[3,4-b]pyridine-5-carbonitrile]
17 | 9 nM | 2050 nM | – | CC(C)Nc1cc(-n2ncc3cc(C#N)cnc32)ncc1-n1cc(CS(=O)(=O)c2ccccc2)nn1 [Example 332, 1-(4-(isopropylamino)-5-(4-((phenylsulfonyl)methyl)-1H-1,2,3-triazol-1-yl)pyridin-2-yl)-1H-pyrazolo[3,4-b]pyridine-5-carbonitrile]
18 | 14 nM | 4700 nM | – | CC(C)Nc1cc(-n2ncc3cc(C#N)cnc32)ncc1-n1cc(C2CCN(C(=O)OC(C)(C)C)CC2)nn1 [Example 333, tert-butyl 4-(1-(6-(5-cyano-1H-pyrazolo[3,4-b]pyridin-1-yl)-4-(isopropylamino)pyridin-3-yl)-1H-1,2,3-triazol-4-yl)piperidine-1-carboxylate]
19 | 6 nM | 630 nM | – | CC(=O)N1CCC(c2cn(-c3cnc(-n4ncc5cc(C#N)cnc54)cc3NC(C)C)nn2)CC1 [Example 335, 1-(5-(4-(1-acetylpiperidin-4-yl)-1H-1,2,3-triazol-1-yl)-4-(isopropylamino)pyridin-2-yl)-1H-pyrazolo[3,4-b]pyridine-5-carbonitrile]
20 | 4 nM | 810 nM | – | CC(C)Nc1cc(-n2ncc3cc(C#N)cnc32)ncc1-n1cc(C2CCC(N)CC2)nn1 (stereo not drawn) [Example 340, 1-(5-(4-((1s,4s)-4-aminocyclohexyl)-1H-1,2,3-triazol-1-yl)-4-(isopropylamino)pyridin-2-yl)-1H-pyrazolo[3,4-b]pyridine-5-carbonitrile]
21 | 2 nM | 1120 nM | – | CC(C)Nc1cc(-n2ncc3cc(C#N)cnc32)ncc1-n1cc(C2CCC(NC(=O)OC(C)(C)C)CC2)nn1 (stereo not drawn) [Example 342, tert-butyl ((1s,4s)-4-(1-(6-(5-cyano-1H-pyrazolo [3,4-b]pyridin-1-yl)-4-(isopropylamino)pyridin-3-yl)-1H-1,2,3-triazol-4-yl)cyclohexyl) carbamate]
22 | 3 nM | 520 nM | – | CC(C)Nc1cc(-n2ncc3cc(C#N)cnc32)ncc1-n1cc(C2CCC(NC(C)C)CC2)nn1 (stereo not drawn) [Example 343, 1-(4-(isopropylamino)-5-(4-((1 s,4s)-4-(isopropylamino)cyclohexyl)-1H-1,2,3-triazol-1-yl)pyridin-2-yl)-1H-pyrazolo[3,4-b]pyridine-5-carbonitrile]
23 | 3 nM | 650 nM | – | COC(=O)NC1CCC(c2cn(-c3cnc(-n4ncc5cc(C#N)cnc54)cc3NC(C)C)nn2)CC1 (stereo not drawn) [Example 344, methyl ((1s,4s)-4-(1-(6-(5-cyano-1H-pyrazolo[3,4-b]pyridin-1-yl)-4-(isopropylamino)pyridin-3-yl)-1H-1,2,3-triazol-4-yl)cyclohexyl)carbamate]
24 | 6 nM | 460 nM | – | CCS(=O)(=O)N1CCC(c2cn(-c3cnc(-n4ncc5cc(C#N)cnc54)cc3NC(C)C)nn2)CC1 [Example 346, 1-(5-(4-(1-(ethylsulfonyl)piperidin-4-yl)-1H-1,2,3-triazol-1-yl)-4-(isopropylamino)pyridin-2-yl)-1H-pyrazolo[3,4-b]pyridine-5-carbonitrile]
25 | 20 nM | 460 nM | – | COC(=O)NCCc1cn(-c2cnc(-n3ncc4cc(C#N)cnc43)cc2NC(C)C)nn1 [Example 352, methyl (2-(1-(6-(5-cyano-1H-pyrazolo[3,4-b]pyridin-1-yl)-4-(isopropylamino)pyridin-3-yl)-1H-1,2,3-triazol-4-yl)ethyl)carbamate]
26 | 11 nM | – | 430 nM | CC(F)Cc1cn(-c2cnc(-n3ncc4cc(C#N)cnc43)cc2NC2CC2)nn1 (stereo not drawn) [Example 353, 1-(4-(cyclopropylamino)-5-(4-(2-fluoropropyl)-1H-1,2,3-triazol-1-yl)pyridin-2-yl)-1H-pyrazolo[3,4-b]pyridine-5-carbonitrile]
27 | 7 nM | 440 nM | – | CC(C)(O)CCc1cn(-c2cnc(-n3ncc4cc(C#N)cnc43)cc2NCCC(F)(F)F)nn1 [Example 362, 1-(5-(4-(3-hydroxy-3-methylbutyl)-1H-1,2,3-triazol-1-yl)-4-((3,3,3-trifluoropropyl)amino)pyridin-2-yl)-1H-pyrazolo[3,4-b]pyridine-5-carbonitrile]
